The results in this text go back to patent US20070299083A1, “6-Methoxy-8-[4-(1-(5-fluoro)-quinolin-8-yl-piperidin-4-yl)-piperazin-1-yl]-quinoline hydrochloric acid salts” (Wyeth, priority 2006, published 2007).

The nature of the data set: solubility in aqueous media. Format: physicochemical. The following applies: even in the presence of surfactants.

Each structure is given as a SMILES string.

In general, solubility refers to the dissolved amount per volume that the medium holds. As to `COc1cc(N2CCN(C3CCN(c4ccc(F)c5cccnc45)CC3)CC2)c2ncccc2c1` [free base, 6-methoxy-8-[4-(1-(5-fluoro)-quinolin-8-yl-piperidin-4-yl)-piperazin-1-yl]-quinoline], the solubility was roughly 0.4 µg/mL.
